{"source": "patent US11299524B2", "about": "“KIF13B-derived peptide and method of inhibiting angiogenesis” (THE BOARD OF TRUSTEES OF THE UNIVERSITY OF ILLINOIS, priority 2016, dated 2022)", "tested_on": "vWF positive endothelial cells in tumors", "experiment": "delivery of DY633-labeled peptide to tumors in H460-tumor bearing SCID mice", "assay_type": "in vivo, mouse", "details": "10 mg/kg i.v. via tail vein, tumors dissected after 1 hour", "protocol": "Delivery of the DUF2C5 peptide was tested using synthesized peptide covalently conjugated with DY633 fluorescent probe (Pierce). DY633-DUF2C5 (10 mg/kg body weight), DY633-CT23 or DY633 alone were injected intravenous (i.v.) via tail vein in H460-tumor bearing SCID mice. After 1 hour, tumors were dissected and flash frozen in OCT. Cryosections of tumors were co-stained with vWF to visualize endothelial cells in tumors."}
{"smiles": "CC[N+](CCCS(=O)(=O)[O-])=c1ccc2c(C=CC=C3N(CCCCCC(=O)O)c4ccc(S(=O)(=O)[O-])cc4C3(C)C)cc(C(C)(C)C)oc-2c1.[Na+]", "note": "[DY633]", "values": [{"measurement": "delivery into tumor sites (DY633 label in tumor cryosections)", "result": "not detected"}]}
